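The compound was tested at five concentrations on cells cultured in 96-well plates, with a 48-hour exposure period. At the GI50, growth is halved.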 Calls of active or inactive are those of the source. No stated cut-off is given here; in the data, active = GI50 up to about 1.1 µM and inactive = higher.
Columns and labels:
Assay in all cases: growth of human tumour cells (NCI), 48 h
786-0 = test system: 786-0
A498 = test system: A498
A549 = test system: A549
ACHN = test system: ACHN
BT-549 = test system: BT-549
CAKI-1 = test system: CAKI-1
CCRF-CEM = test system: CCRF-CEM
COLO 205 = test system: COLO 205
DU-145 = test system: DU-145
EKVX = test system: EKVX
HCT-116 = test system: HCT-116
HCT-15 = test system: HCT-15
HL-60 = test system: HL-60
HOP-62 = test system: HOP-62
HOP-92 = test system: HOP-92
HT-29 = test system: HT-29
Hs-578T = test system: Hs-578T
IGROV-1 = test system: IGROV-1
K562 = test system: K562
KM12 = test system: KM12
LOX IMVI = test system: LOX IMVI
M14 = test system: M14
MCF7 = test system: MCF7
MDA-MB-231 = test system: MDA-MB-231
MDA-MB-435 = test system: MDA-MB-435
MDA-N = test system: MDA-N
MOLT-4 = test system: MOLT-4
Malme-3M = test system: Malme-3M
NCI-H226 = test system: NCI-H226
NCI-H23 = test system: NCI-H23
NCI-H460 = test system: NCI-H460
NCI-H522 = test system: NCI-H522
NCI/ADR-RES = test system: NCI/ADR-RES
OVCAR-3 = test system: OVCAR-3
OVCAR-4 = test system: OVCAR-4
OVCAR-5 = test system: OVCAR-5
OVCAR-8 = test system: OVCAR-8
PC-3 = test system: PC-3
RPMI-8226 = test system: RPMI-8226
RXF 393 = test system: RXF 393
SF-295 = test system: SF-295
SF-539 = test system: SF-539
SK-MEL-28 = test system: SK-MEL-28
SK-MEL-2 = test system: SK-MEL-2
SK-MEL-5 = test system: SK-MEL-5
SK-OV-3 = test system: SK-OV-3
SN12C = test system: SN12C
SNB-19 = test system: SNB-19
SNB-75 = test system: SNB-75
SR = test system: SR
SW-620 = test system: SW-620
T47D = test system: T47D
TK-10 = test system: TK-10
U-251 = test system: U-251
UACC-257 = test system: UACC-257
UO-31 = test system: UO-31

For `c1ccc(NN/N=N/c2ccc(-c3nc4ccccc4[nH]3)cc2)cc1`, the GI50 (786-0) was 28.2 µM (inactive), the GI50 (A498) was 43.7 µM (inactive) and the GI50 (A549) was 37 µM (inactive). The GI50 (ACHN) was 25.8 µM (inactive), the GI50 (BT-549) was 29.4 µM (inactive) and the GI50 (CAKI-1) was 30.1 µM (inactive). The GI50 (CCRF-CEM) was 20.7 µM (inactive), the GI50 (COLO 205) was 23.1 µM (inactive) and the GI50 (DU-145) was 42.7 µM (inactive). The GI50 (EKVX) was 39.4 µM (inactive), the GI50 (HCT-116) was 28 µM (inactive) and the GI50 (HCT-15) was 13 µM. The GI50 (HL-60) was 22 µM (inactive), the GI50 (HOP-62) was 41.3 µM (inactive) and the GI50 (HOP-92) was 60.7 µM (inactive). For the same molecule, the GI50 (HT-29) was 25 µM (inactive), the GI50 (Hs-578T) was 29.1 µM (inactive) and the GI50 (IGROV-1) was 27.8 µM (inactive). For the same molecule, the GI50 (K562) was 8.43 µM (inactive), the GI50 (KM12) was 19.5 µM (inactive) and the GI50 (LOX IMVI) was 15.2 µM (inactive). The GI50 (M14) was 10.6 µM (inactive), the GI50 (MCF7) was 15.3 µM (inactive) and the GI50 (MDA-MB-231) was 72.8 µM (inactive). For the same molecule, the GI50 (MDA-MB-435) was 19.4 µM (inactive), the GI50 (MDA-N) was 29.9 µM (inactive) and the GI50 (MOLT-4) was 14.5 µM (inactive). The GI50 (Malme-3M) was 28.7 µM (inactive), the GI50 (NCI-H226) was 36.9 µM (inactive) and the GI50 (NCI-H23) was 32.5 µM (inactive). The GI50 (NCI-H460) was 27 µM (inactive), the GI50 (NCI-H522) was 24.7 µM (inactive) and the GI50 (NCI/ADR-RES) was 22.1 µM (inactive). For the same molecule, the GI50 (OVCAR-3) was 15.6 µM (inactive), the GI50 (OVCAR-4) was 23.4 µM (inactive) and the GI50 (OVCAR-5) was > 100 µM (inactive). The GI50 (OVCAR-8) was 36 µM (inactive), the GI50 (PC-3) was 26.8 µM (inactive) and the GI50 (RPMI-8226) was 14.2 µM (inactive). The GI50 (RXF 393) was 21.3 µM (inactive), the GI50 (SF-295) was 25.6 µM (inactive) and the GI50 (SF-539) was 77.6 µM (inactive). For the same molecule, the GI50 (SK-MEL-28) was 35.8 µM (inactive), the GI50 (SK-MEL-2) was 23.9 µM (inactive) and the GI50 (SK-MEL-5) was 29 µM (inactive). For the same molecule, the GI50 (SK-OV-3) was > 100 µM (inactive), the GI50 (SN12C) was 32.2 µM (inactive) and the GI50 (SNB-19) was > 100 µM (inactive). The GI50 (SNB-75) was 23.8 µM (inactive), the GI50 (SR) was 31.8 µM (inactive) and the GI50 (SW-620) was 52.4 µM (inactive). For the same molecule, the GI50 (T47D) was 8.17 µM (inactive), the GI50 (TK-10) was 64.4 µM (inactive) and the GI50 (U-251) was 40.4 µM (inactive). The GI50 (UACC-257) was 28.6 µM (inactive) and the GI50 (UO-31) was 34.5 µM (inactive).
